From US12643871B2, “Aryl formamide compound containing chiral sulfur oxide or salt thereof, preparation method, herbicidal composition and use thereof” (Qingdao Kingagroot Chemical Compound Co., Ltd., priority 2019, dated 2026)

Assays:
Assay type in all cases: in vivo
[1] = system: key weeds such as Digitaria sanguinalis, Leptochloa chinensis; assay: Comparison experiment (post-emergence, Tables 4-7), herbicidal activity on weeds not listed separately
Source text: The above growth control rates are fresh weight control rates.
Experiment on weeding effect in post-emergence stage: monocotyledonous and dicotyledonous weed seeds (Descurainia sophia, Capsella bursa-pastoris, Galium aparine, Stellaria media, Lithospermum arvense, Rorippa indica, Alopecurus aequalis, Beckmannia syzigachne, Sclerochloa dura, Phleum paniculatum, Bromus japonicus, Aegilops tauschii, Phalaris arundinacea, Amaranthus retroflexus, Chenopodiaceae, Commelina communis, Sonchus arvensis, convolvulus arvensis, Cirsium setosum, Solanum nigrum, Acalypha australis, Digitaria sanguinalis, Echinochloa crusgalli, Setaria viridis, Setaria glauca, Leptochloa chinensis, Monochoria vaginalis, Sagittaria trifolia, Scirpus juncoides, Cyperus rotundus, Cyperus iria, Cyperus difformis, Fimbristylis, Portulaca oleracea, Xanthium sibiricum, Pharbitis nil) and major crop seeds (wheat, corn, rice, soybean, cotton, oilseed rape, millet, sorghum, potato, sesame, ricinus) were placed in plastic pots filled with soil, then covered with 0.5-2 cm of soil, allowed to grow in a good greenhouse environment. After 2 weeks of sowing, the test plants were treated in the 2 leaf stage. The tested compounds of the present invention were respectively dissolved in acetone, then added with Tween 80 and 1.5 liter/ha of emulsifiable concentrate of methyl oleate as synergist, diluted with a certain amount of water to obtain a solution with a certain concentration, and sprayed with a spray tower onto the plants. After the application, the plants were cultured for 15 days in the greenhouse, and then the experimental results of the weeding were counted. The doses of the used compounds were 500, 250, 125, 60, 30, 15 g/ha, and the averages were obtained by repeating for three times.
If there is no clear marker, the post-seedling test conditions are the same as above, and the experimental results are shown in Tables 4-7.

[2] = system: Abutilon theophrasti; assay: Weeding effect in post-emergence stage; conditions: 250 g/ha; 2 leaf stage; 15 days after application; fresh weight control rate
Summary of the method: (§1)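 Activity graded 0 (<5%) to 5 (>85%) from fresh-weight control rate, averaged over three repeats, 15 days after a spray-tower application. Plants at 2-leaf stage (2 weeks post-sowing) received 15–500 g/ha of compound formulated in acetone, Tween 80 and methyl oleate synergist (1.5 L/ha).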

[3] = system: Setaria viridis; assay: Weeding effect in post-emergence stage; conditions: 250 g/ha; 2 leaf stage; 15 days after application; fresh weight control rate
Summary of the method: as §1

[4] = system: Echinochloa crusgali; assay: Weeding effect in post-emergence stage; conditions: 250 g/ha; 2 leaf stage; 15 days after application; fresh weight control rate
Summary of the method: as §1

[5] = system: Amaranthus retroflexus; assay: Weeding effect in post-emergence stage; conditions: 250 g/ha; 2 leaf stage; 15 days after application; fresh weight control rate
Summary of the method: as §1

[6] = system: Digitaria sanguinalis; assay: Weeding effect in post-emergence stage; conditions: 250 g/ha; 2 leaf stage; 15 days after application; fresh weight control rate
Summary of the method: as §1

[7] = doses of 125, 60, 30, 15 g/ha, X replaced by other five membered rings

Row | Compound | herbicidal activity and/or crop safety compared with the corresponding racemate or S configuration ([1]; dose of 120, 48, 30, 24 g/ha) | weeding effect in post-emergence stage, activity level (growth control rate), Abutilon theophrasti [2] | weeding effect in post-emergence stage, activity level (growth control rate), Setaria viridis [3] | weeding effect in post-emergence stage, activity level (growth control rate), Echinochloa crusgali [4] | weeding effect in post-emergence stage, activity level (growth control rate), Amaranthus retroflexus [5] | weeding effect in post-emergence stage, activity level (growth control rate), Digitaria sanguinalis [6] | herbicidal activity and/or crop safety compared with the corresponding racemate or S configuration ([1]; no dose stated) | herbicidal activity and/or crop safety compared with the corresponding racemate or S configuration [1, 7]
1 | CCC[S@@+]([O-])c1c(C(F)(F)F)ccc(C(=O)Nc2nnc(C)o2)c1SCC [Compound 569] | better herbicidal activity and/or crop safety | 5 (Level 5: growth control rate is above 85%) | 5 (Level 5: growth control rate is above 85%) | 5 (Level 5: growth control rate is above 85%) | 5 (Level 5: growth control rate is above 85%) | 5 (Level 5: growth control rate is above 85%) | – | –
2 | CCCC[S@@+]([O-])c1c(C(F)(F)F)ccc(C(=O)Nc2nnc(C)o2)c1OC [Compound 308] | – | 5 (Level 5: growth control rate is above 85%) | 5 (Level 5: growth control rate is above 85%) | 5 (Level 5: growth control rate is above 85%) | 5 (Level 5: growth control rate is above 85%) | 5 (Level 5: growth control rate is above 85%) | better herbicidal activity and/or crop safety | –
3 | COC(=O)C[S@@+]([O-])c1c(C(F)(F)F)ccc(C(=O)Nc2nnc(C)o2)c1OC [Compound 353] | – | – | – | 5 (Level 5: growth control rate is above 85%) | 5 (Level 5: growth control rate is above 85%) | – | better herbicidal activity and/or crop safety | –
4 | CSc1c(C(=O)Nc2nnc(C)o2)ccc(C(F)(F)F)c1[S@+]([O-])C(C)C [Compound 549] | better herbicidal activity and/or crop safety | 5 (Level 5: growth control rate is above 85%) | – | 5 (Level 5: growth control rate is above 85%) | 5 (Level 5: growth control rate is above 85%) | 5 (Level 5: growth control rate is above 85%) | – | –
5 | CCC[S@@+]([O-])c1c(C(F)(F)F)ccc(C(=O)Nc2nnnn2CC)c1F [Compound 382] | – | – | – | 5 (Level 5: growth control rate is above 85%) | 5 (Level 5: growth control rate is above 85%) | – | – | better herbicidal activity and/or crop safety
6 | CCC[S@@+]([O-])c1c(C(F)F)ccc(C(=O)Nc2nnnn2C)c1Cl [Compound 618] | – | – | – | 5 (Level 5: growth control rate is above 85%) | 5 (Level 5: growth control rate is above 85%) | 5 (Level 5: growth control rate is above 85%) | – | better herbicidal activity and/or crop safety
7 | Cc1nnc(NC(=O)c2ccc(C(F)(F)F)c([S@+]([O-])CC(C)(C)C)c2F)o1 [Compound 11] | – | 5 (Level 5: growth control rate is above 85%) | 5 (Level 5: growth control rate is above 85%) | 5 (Level 5: growth control rate is above 85%) | 5 (Level 5: growth control rate is above 85%) | 5 (Level 5: growth control rate is above 85%) | – | –
8 | CC[S+]([O-])c1c(C(F)(F)F)ccc(C(=O)N(c2nnc(C)o2)C(C)OC(=O)OC)c1OC (mixture of isomers) [Compound 421] | – | 5 (Level 5: growth control rate is above 85%) | 5 (Level 5: growth control rate is above 85%) | 5 (Level 5: growth control rate is above 85%) | 5 (Level 5: growth control rate is above 85%) | 5 (Level 5: growth control rate is above 85%) | – | –
9 | COc1c(C(=O)Nc2nnc(C)o2)ccc(C(F)(F)F)c1[S@+]([O-])CC#N [Compound 337] | – | 5 (Level 5: growth control rate is above 85%) | 5 (Level 5: growth control rate is above 85%) | 5 (Level 5: growth control rate is above 85%) | 5 (Level 5: growth control rate is above 85%) | 5 (Level 5: growth control rate is above 85%) | – | –
10 | Cc1nnc(NC(=O)c2ccc(C(F)(F)F)c([S@+]([O-])C(C)(C)C)c2F)o1 [Compound 7] | – | 5 (Level 5: growth control rate is above 85%) | 4 (Level 4: growth control rate is greater than or equal to 60% and less than 85%) | 5 (Level 5: growth control rate is above 85%) | 5 (Level 5: growth control rate is above 85%) | 4 (Level 4: growth control rate is greater than or equal to 60% and less than 85%) | – | –
11 | CCOC[S@+]([O-])c1c(C(F)(F)F)ccc(C(=O)Nc2nnc(C)o2)c1OC [Compound 343] | – | 5 (Level 5: growth control rate is above 85%) | 5 (Level 5: growth control rate is above 85%) | 5 (Level 5: growth control rate is above 85%) | 5 (Level 5: growth control rate is above 85%) | 5 (Level 5: growth control rate is above 85%) | – | –
